Results as given in PubChem BioAssay AID330 (DTP/NCI, 2004).
Where “and” joins values, the source holds several entries; their conditions need not be identical. Equal entries are not always repeated. Toxic doses and inconclusive results are not listed.

Test system: P388 leukemia ip, CD2F1 mice, survival T/C
Experiment: NCI In Vivo Anticancer Drug Screen. Data for tumor model P388 Leukemia (intraperitoneal) in CD2F1 (CDF1) mice
Settings: endpoint: median survival time, higher = longer survival
Summary of the method: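 Mice carrying the transplanted tumor received test compound or vehicle. Survival was recorded in each group, and the value is the treated-group measurement divided by that of the vehicle-treated control group.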

[1] = dose: 25.0 mg/kg/injection, schedule: Q01DX009 (ip), vehicle: saline with Tween-80
[2] = dose: 50.0 mg/kg/injection, schedule: Q01DX009 (ip), vehicle: saline with Tween-80
[3] = dose: 100.0 mg/kg/injection, schedule: Q01DX009 (ip), vehicle: saline with Tween-80
[4] = dose: 100.0 mg/kg/injection, schedule: Q04DX003 (ip), vehicle: saline with Tween-80
[5] = dose: 200.0 mg/kg/injection, schedule: Q04DX003 (ip), vehicle: saline with Tween-80
[6] = dose: 400.0 mg/kg/injection, schedule: Q04DX003 (ip), vehicle: saline with Tween-80
[7] = dose: 50.0 mg/kg/injection, schedule: Q01DX005 (ip), vehicle: saline with Tween-80
[8] = dose: 50.0 mg/kg/injection, schedule: Q01DX009 (ip), vehicle: Klucel (hydroxypropylcellulose) (HPC)
[9] = dose: 100.0 mg/kg/injection, schedule: Q01DX009 (ip), vehicle: Klucel (hydroxypropylcellulose) (HPC)
[10] = dose: 200.0 mg/kg/injection, schedule: Q01DX009 (ip), vehicle: Klucel (hydroxypropylcellulose) (HPC)
[11] = dose: 60.0 mg/kg/injection, schedule: Q01DX005 (ip), vehicle: saline with Tween-80
[12] = dose: 120.0 mg/kg/injection, schedule: Q01DX005 (ip), vehicle: saline with Tween-80
[13] = dose: 25.0 mg/kg/injection, schedule: Q01DX005 (ip), vehicle: Klucel (hydroxypropylcellulose) (HPC)
[14] = dose: 50.0 mg/kg/injection, schedule: Q01DX005 (ip), vehicle: Klucel (hydroxypropylcellulose) (HPC)
[15] = dose: 100.0 mg/kg/injection, schedule: Q01DX005 (ip), vehicle: Klucel (hydroxypropylcellulose) (HPC)
[16] = dose: 200.0 mg/kg/injection, schedule: Q01DX005 (ip), vehicle: Klucel (hydroxypropylcellulose) (HPC)

[Cl][Mn][Cl]
T/C (dose: 0.25 mg/kg/injection, schedule: Q01DX009 (ip), vehicle: saline): 99 % of control
T/C (dose: 0.5 mg/kg/injection, schedule: Q01DX009 (ip), vehicle: saline): 90 % of control and 97 % of control
T/C (dose: 1.0 mg/kg/injection, schedule: Q01DX009 (ip), vehicle: saline): 100 % of control
T/C (dose: 2.0 mg/kg/injection, schedule: Q01DX009 (ip), vehicle: saline): 88 % of control and 94 % of control
T/C (dose: 4.0 mg/kg/injection, schedule: Q01DX009 (ip), vehicle: suspension in saline): 119 % of control
T/C (dose: 8.0 mg/kg/injection, schedule: Q01DX009 (ip), vehicle: saline): 90 % of control
T/C (dose: 8.0 mg/kg/injection, schedule: Q01DX009 (ip), vehicle: suspension in saline): 97 % of control
T/C (dose: 16.0 mg/kg/injection, schedule: Q01DX009 (ip), vehicle: saline): 100 % of control
T/C (dose: 16.0 mg/kg/injection, schedule: Q01DX009 (ip), vehicle: suspension in saline): 116 % of control
T/C (dose: 32.0 mg/kg/injection, schedule: Q01DX009 (ip), vehicle: suspension in saline): 119 % of control
T/C (dose: 64.0 mg/kg/injection, schedule: Q01DX009 (ip), vehicle: saline): 100 % of control and 106 % of control
T/C (dose: 64.0 mg/kg/injection, schedule: Q01DX009 (ip), vehicle: suspension in saline): 97 % of control

O=S(=O)(c1ccc(N=Cc2cccs2)cc1)c1ccc(N=Cc2cccs2)cc1
T/C (dose: 50.0 mg/kg/injection, schedule: Q01DX009 (ip), vehicle: saline): 99 % of control
T/C (dose: 100.0 mg/kg/injection, schedule: Q01DX009 (ip), vehicle: saline): 98 % of control
T/C (dose: 200.0 mg/kg/injection, schedule: Q01DX009 (ip), vehicle: saline): 91 % of control and 95 % of control

NC(=O)c1nnn(Cc2ccccc2)c1N
T/C [1]: 119 % of control
T/C [2]: 102 % of control
T/C [3]: 109 % of control
T/C (dose: 200.0 mg/kg/injection, schedule: Q01DX009 (ip), vehicle: saline with Tween-80): 106 % of control
T/C (dose: 400.0 mg/kg/injection, schedule: Q01DX009 (ip), vehicle: saline with Tween-80): 110 % of control

NC(=O)c1c(N)nn2c(-c3ccccc3)cc(-c3ccccc3)cc12
T/C (dose: 100.0 mg/kg/injection, schedule: Q01DX001 (ip), vehicle: Klucel (hydroxypropylcellulose) (HPC)): 86 % of control
T/C (dose: 400.0 mg/kg/injection, schedule: Q01DX001 (ip), vehicle: Klucel (hydroxypropylcellulose) (HPC)): 94 % of control

CN1C(C)(C)CC(C(=O)c2ccccc2)(c2ccccc2)CC1(C)C
T/C (dose: 50.0 mg/kg/injection, schedule: Q01DX005 (ip), vehicle: saline + Tween-80 + alcohol): 107 % of control
T/C (dose: 100.0 mg/kg/injection, schedule: Q01DX005 (ip), vehicle: saline + Tween-80 + alcohol): 100 % of control

CC(=O)N1C(=O)N(Cl)C(=O)C1(C)c1cccs1 (stereo not given)
T/C [4]: 100 % of control
T/C [5]: 95 % of control
T/C [6]: 90 % of control

OC[P+](CO)(CO)CO
T/C (dose: 6.25 mg/kg/injection, schedule: Q01DX005 (ip), vehicle: saline with Tween-80): 117 % of control and 96 % of control
T/C (dose: 12.5 mg/kg/injection, schedule: Q01DX005 (ip), vehicle: saline with Tween-80): 114 % of control and 96 % of control
T/C (dose: 25.0 mg/kg/injection, schedule: Q01DX005 (ip), vehicle: saline with Tween-80): 95 % of control
T/C [7]: 104 % of control and 122 % of control

CCCC/C=C/[Se]c1ccccc1
T/C [1]: 101 % of control
T/C [2]: 151 % of control
T/C [3]: 109 % of control

COc1ccc(C2=NOP(c3ccccc3)(c3ccccc3)(c3ccccc3)C2)cc1
T/C (dose: 1.56 mg/kg/injection, schedule: Q01DX009 (ip), vehicle: water): 102 % of control
T/C (dose: 3.13 mg/kg/injection, schedule: Q01DX009 (ip), vehicle: water): 106 % of control
T/C (dose: 6.25 mg/kg/injection, schedule: Q01DX009 (ip), vehicle: water): 90 % of control
T/C (dose: 12.5 mg/kg/injection, schedule: Q01DX009 (ip), vehicle: water): 107 % of control
T/C (dose: 25.0 mg/kg/injection, schedule: Q01DX009 (ip), vehicle: other): 99 % of control
T/C (dose: 25.0 mg/kg/injection, schedule: Q01DX009 (ip), vehicle: water): 104 % of control
T/C [8]: 105 % of control
T/C [9]: 101 % of control
T/C [10]: 101 % of control

Nc1nc2c(c(-c3nc(N)nc4c3Cc3ccccc3-4)n1)Cc1ccccc1-2
T/C [11]: 98 % of control
T/C [12]: 100 % of control

Cc1cccc(Cl)c1NC(=O)CS
T/C [4]: 100 % of control
T/C [5]: 104 % of control
T/C [6]: 100 % of control

O=C1CCC2CCCCC2C1 (stereo not given)
T/C [8]: 97 % of control
T/C [9]: 104 % of control
T/C [10]: 88 % of control

CCOC(=O)c1c[nH]n(Cc2ccccc2)c1=O
T/C [11]: 100 % of control
T/C [12]: 100 % of control
T/C (dose: 240.0 mg/kg/injection, schedule: Q01DX005 (ip), vehicle: saline with Tween-80): 95 % of control

C[C@@H]1C(=O)C[C@H]2C(C)(C)CCC[C@]2(C)[C@@]1(O)CCc1ccoc1
T/C [13]: 100 % of control
T/C [14]: 100 % of control
T/C [15]: 100 % of control
T/C [16]: 96 % of control

CNC(=O)OCc1nn(-c2ccc(Cl)c(Cl)c2)c(C)c1COC(=O)NC
T/C (dose: 12.5 mg/kg/injection, schedule: Q01DX009 (ip), vehicle: distilled water + Tween-80): 87 % of control and 93 % of control
T/C (dose: 25.0 mg/kg/injection, schedule: Q01DX009 (ip), vehicle: distilled water + Tween-80): 86 % of control and 89 % of control
T/C (dose: 50.0 mg/kg/injection, schedule: Q01DX009 (ip), vehicle: distilled water + Tween-80): 90 % of control
T/C (dose: 100.0 mg/kg/injection, schedule: Q01DX009 (ip), vehicle: distilled water + Tween-80): 88 % of control
T/C (dose: 200.0 mg/kg/injection, schedule: Q01DX009 (ip), vehicle: distilled water + Tween-80): 86 % of control and 87 % of control

O=C(N1CCCCC(Cl)(Cl)C1=O)C(Cl)(Cl)Cl
T/C [7]: 106 % of control
T/C (dose: 100.0 mg/kg/injection, schedule: Q01DX005 (ip), vehicle: saline with Tween-80): 103 % of control

Cc1c([C@H](C)[C@@H]2NC[C@@H](C)C[C@H]2O)ccc2c1C[C@H]1[C@H]2CC=C2C[C@@H](O)CC[C@@]21C
T/C (dose: 0.75 mg/kg/injection, schedule: Q01DX009 (ip), vehicle: saline with Tween-80): 108 % of control
T/C (dose: 1.5 mg/kg/injection, schedule: Q01DX009 (ip), vehicle: saline with Tween-80): 115 % of control
T/C (dose: 3.0 mg/kg/injection, schedule: Q01DX009 (ip), vehicle: saline with Tween-80): 101 % of control and 113 % of control

C/C(=N\NC(=S)N1CCCC1)c1ccc[nH]1
T/C [14]: 102 % of control
T/C [15]: 114 % of control
T/C [16]: 89 % of control

COCC12CN(C)C3C4C(OC)C1C3(C(OC)CC2O)C1CC2(O)C(OC)C(O)C4(OC(C)=O)C1C2OC(=O)c1ccccc1 (stereo not given)
T/C (dose: 0.09 mg/kg/injection, schedule: Q01DX005 (ip), vehicle: Klucel (hydroxypropylcellulose) (HPC)): 100 % of control
T/C (dose: 12.0 micrograms/kg/injection, schedule: Q01DX005 (ip), vehicle: Klucel (hydroxypropylcellulose) (HPC)): 91 % of control
T/C (dose: 24.0 micrograms/kg/injection, schedule: Q01DX005 (ip), vehicle: Klucel (hydroxypropylcellulose) (HPC)): 98 % of control and 101 % of control
T/C (dose: 48.0 micrograms/kg/injection, schedule: Q01DX005 (ip), vehicle: Klucel (hydroxypropylcellulose) (HPC)): 100 % of control and 101 % of control

O=C1CC2(Cl)CN3c4ccccc4C(=O)CC3(Cl)CN2c2ccccc21 (stereo not given)
T/C (dose: 12.5 mg/kg/injection, schedule: Q04DX003 (ip), vehicle: alcohol): 100 % of control and 106 % of control
T/C (dose: 25.0 mg/kg/injection, schedule: Q04DX003 (ip), vehicle: alcohol): 99 % of control and 106 % of control
T/C (dose: 50.0 mg/kg/injection, schedule: Q04DX003 (ip), vehicle: alcohol): 100 % of control and 108 % of control

CCCCn1[nH]nc(C(=O)OC)c1=O (tested in a mixture with another compound)
T/C (dose: 50.0 mg/kg/injection, schedule: Q01DX005 (ip), vehicle: saline): 105 % of control
T/C (dose: 100.0 mg/kg/injection, schedule: Q01DX005 (ip), vehicle: saline): 102 % of control
T/C (dose: 200.0 mg/kg/injection, schedule: Q01DX005 (ip), vehicle: saline): 94 % of control

Oc1cc2c(c3c(O)c4ccccc4c(O)c13)=NC1CCCCC1N=2 (stereo not given)
T/C [13]: 100 % of control
T/C [14]: 102 % of control
T/C [15]: 103 % of control
T/C [16]: 93 % of control
